Reference: US7348427B2, “Antipathogenic benzamide compounds” (Genesoft Pharmaceuticals, Inc., priority 2001, dated 2008)
≈ marks a conversion by molar mass, not a printed value.

What was measured:
[1] = tested on: Staphylococcus aureus (ATCC 13709, a methicillin sensitive strain (MSSA)); test: MIC, NCCLS broth microdilution assay; type: cell-based; conditions: E = S. aureus ATCC 13709
Procedure, shortened: (§1)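 Broth microdilution, NCCLS M7-A4/M11-A4/M27-T guidelines; readout = minimal inhibitory concentration. Candida: Manual of Clinical Microbiology method.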

[2] = tested on: Bacillus cereus (ATCC 11778); test: MIC, NCCLS broth microdilution assay; type: cell-based; conditions: A = B. cereus ATCC 11778
Procedure, shortened: as §1

[3] = tested on: Enterococcus faecium (ATCC 51559, a vancomycin resistant strain (VRE)); test: MIC, NCCLS broth microdilution assay; type: cell-based; conditions: D = E. faecium ATCC 51559
Procedure, shortened: as §1

[4] = tested on: Streptococcus pneumoniae (ATCC 51422, a penicillin resistant strain (PRSP)); test: MIC, NCCLS broth microdilution assay; type: cell-based; conditions: I = S. pneumoniae ATCC 51422
Procedure, shortened: as §1

[5] = tested on: Staphylococcus epidermidis (ATCC 12228); test: MIC, NCCLS broth microdilution assay; type: cell-based; conditions: G = S. epidermidis ATCC 12228
Procedure, shortened: as §1

[6] = tested on: Staphylococcus aureus (ATCC 27660, a methicillin resistant strain (MRSA)); test: MIC, NCCLS broth microdilution assay; type: cell-based; conditions: F = S. aureus ATCC 27660
Procedure, shortened: as §1

[7] = target: dsDNA target sequence AATTAATCAT (352 bp fragment, Plasmid B); test: Quantitative DNase I footprint titration, dsDNA binding; conditions: 352 bp/B, 22° C., pH 7.0, read-out: Dissociation Constant Kd
[8] = target: dsDNA target sequence AATACT (310 bp fragment, Plasmid A); test: as above; conditions: 310 bp/A, 22° C., pH 7.0, read-out: Dissociation Constant Kd
[9] = tested on: Candida albicans (ATCC 38247); test: Antifungal MIC assay; type: cell-based; conditions: B = C. albicans ATCC 38247
Procedure, shortened: as §1

E. faecalis ATCC 29212 = test: MIC, NCCLS broth microdilution assay; type: cell-based, Enterococcus faecalis; conditions: C = E. faecalis ATCC 29212
Procedure, shortened: (§2)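 MICs were determined by NCCLS broth microdilution following documents M7-A4 and M11-A4 (1997).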

S. pneumoniae ATCC 49619 = test: MIC, NCCLS broth microdilution assay; type: cell-based, Streptococcus pneumoniae; conditions: H = S. pneumoniae ATCC 49619
Procedure, shortened: as §2

[10] = Staphylococcus aureus, read-out: Minimum Inhibitory Concentration (MIC)

MIC [1, 10] [µg/mL] | MIC ([2]; Bacillus cereus, ATCC11778, read-out: Minimum Inhibitory Concentration (MIC)) [µg/mL] | MIC ([3]; Enterococcus faecium, read-out: Minimum Inhibitory Concentration (MIC)) [µg/mL] | MIC ([4]; Streptococcus pneumoniae, read-out: Minimum Inhibitory Concentration (MIC)) [µg/mL] | MIC ([5]; Staphylococcus epidermidis, ATCC12228, read-out: Minimum Inhibitory Concentration (MIC)) [µg/mL] | MIC [6, 10] [µg/mL] | Kd [8] [nM] | MIC ([9]; Candida albicans, ATCC38247, read-out: Minimum Inhibitory Concentration (MIC)) [µg/mL] | MIC (E. faecalis ATCC 29212; Enterococcus faecalis, ATCC29212, read-out: Minimum Inhibitory Concentration (MIC)) [µg/mL] | MIC (S. pneumoniae ATCC 49619; Streptococcus pneumoniae, ATCC49619, read-out: Minimum Inhibitory Concentration (MIC)) [µg/mL] | SMILES | Kd [7] [nM] | Minimum Inhibitory Concentration (MIC) [1] | Minimum Inhibitory Concentration (MIC) [2] | Minimum Inhibitory Concentration (MIC) [3] | Minimum Inhibitory Concentration (MIC) [4] | Minimum Inhibitory Concentration (MIC) [5] | Minimum Inhibitory Concentration (MIC) [6] | Minimum Inhibitory Concentration (MIC) [9] | Minimum Inhibitory Concentration (MIC) (E. faecalis ATCC 29212) | Minimum Inhibitory Concentration (MIC) (S. pneumoniae ATCC 49619)
≤ 4 | ≤ 4 | ≤ 4 | ≤ 4 | ≤ 4 | ≤ 4 | 5 | 12 to 32 (≈ 18.8 to 50.1 µM) | ≤ 4 | ≤ 4 | Cn1cc(NC(=O)c2cc(NC(=O)c3cc(NC(=O)c4ccc(Cl)cc4F)c[nH]3)cn2C)cc1C(=O)NCCN1CCOCC1 [Compound A-3] | 1 | – | – | – | – | – | – | – | – | –
– | – | – | – | – | – | – | – | – | – | Cn1cc(NC(=O)c2cc(NC(=O)c3cc(NC(=O)c4ccc(F)cc4F)cn3C)cn2C)cc1C(=O)NCCN1CCCCCC1 [Compound B-18] | 2 | +++ (+++ = MIC ≦ 4) | +++ (+++ = MIC ≦ 4) | +++ (+++ = MIC ≦ 4) | +++ (+++ = MIC ≦ 4) | +++ (+++ = MIC ≦ 4) | +++ (+++ = MIC ≦ 4) | ++ (++ = 4 < MIC < 12) | +++ (+++ = MIC ≦ 4) | +++ (+++ = MIC ≦ 4)
